The record followed here is ChEMBL document CHEMBL1130174, “Pyrrolidine-3-carboxylic acids as endothelin antagonists. 2. Sulfonamide-based ETA/ETB mixed antagonists” (J Med Chem, 1997).

As usually defined, the IC50 is the concentration that inhibits the measured activity by half. High values mean a need for much substance, low ones inhibition by little substance. By bioavailability is commonly meant dose-corrected exposure relative to a reference, in per cent. For orientation: half-life means the time needed for the level to fall by half in the phase considered. Low values mean rapid decline, high ones slow decline.

Data set [1] has as its target T1, Endothelin receptor type B (Sus scrofa, UniProt P35463).
T1 sequence (P35463 whole entry): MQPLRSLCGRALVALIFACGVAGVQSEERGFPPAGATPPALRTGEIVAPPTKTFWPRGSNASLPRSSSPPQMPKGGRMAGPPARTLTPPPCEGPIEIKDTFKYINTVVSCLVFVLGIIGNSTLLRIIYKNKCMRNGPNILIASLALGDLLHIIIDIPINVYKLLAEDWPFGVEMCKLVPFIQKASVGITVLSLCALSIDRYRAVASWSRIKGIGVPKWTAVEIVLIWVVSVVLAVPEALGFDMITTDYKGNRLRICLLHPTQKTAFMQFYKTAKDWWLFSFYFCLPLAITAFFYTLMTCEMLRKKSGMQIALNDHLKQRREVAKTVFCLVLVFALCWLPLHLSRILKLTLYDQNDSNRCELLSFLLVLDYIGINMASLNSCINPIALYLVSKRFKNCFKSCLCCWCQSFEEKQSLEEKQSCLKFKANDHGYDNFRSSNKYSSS
The data set can be described thus: Ability to displace endothelin ([125I]ET-3) from endothelin B receptor derived from cerebellar tissue of porcine.

The target of a further data set is T2, Endothelin-1 receptor (Rattus norvegicus, UniProt P26684).
T2 sequence (P26684 whole entry): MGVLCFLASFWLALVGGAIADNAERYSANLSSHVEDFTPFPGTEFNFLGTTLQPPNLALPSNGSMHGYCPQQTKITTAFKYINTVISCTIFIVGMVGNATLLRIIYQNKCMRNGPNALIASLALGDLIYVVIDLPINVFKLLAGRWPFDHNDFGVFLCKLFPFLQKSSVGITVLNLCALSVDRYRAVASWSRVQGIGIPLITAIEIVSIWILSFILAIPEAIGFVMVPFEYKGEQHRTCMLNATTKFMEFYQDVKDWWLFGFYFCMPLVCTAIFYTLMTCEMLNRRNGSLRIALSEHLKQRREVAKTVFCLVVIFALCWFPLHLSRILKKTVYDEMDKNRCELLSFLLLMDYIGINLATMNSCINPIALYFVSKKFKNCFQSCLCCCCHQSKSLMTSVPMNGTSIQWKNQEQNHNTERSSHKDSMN
The data set can be described thus: Ability to displace endothelin ([125I]ET1) from endothelin A receptor derived from MMQ cells of rodent. Type of data set: cell-based, Rodentia sp.

Data set [2] in a line: Ratio of endothelin A receptor and endothelin B receptor.
A short description of data set [3]: Oral bioavailability in rat. The format is ADME, organism-based. The conditions noted are these: in vivo.
A short description of data set [4]: Half-life is obtained after intravenous dosing of rats. The conditions noted are these: rat, in vivo. The format is ADME, organism-based.

As for `CCCCCS(=O)(=O)N(CCC)CCN1C[C@H](c2ccc3c(c2)OCO3)[C@@H](C(=O)O)[C@@H]1c1ccc(OCOC)cc1`, the figures for the IC50 (in data set [1]; at Endothelin-1 receptor) were 5.2 nM and 0.62 nM, respectively. In addition, the Ratio in data set [2] was determined as 8.4.

Turning to `CCCCCS(=O)(=O)N(CCC)CCN1C[C@H](c2ccc3c(c2)OCO3)[C@@H](C(=O)O)[C@@H]1c1ccc2c(c1)OCCO2`, the IC50 is 7 nM in data set [1] and 0.66 nM at Endothelin-1 receptor. Also, the Ratio in data set [2] turned out to be 10.

Take `CCCCCS(=O)(=O)N(CCC)CCN1C[C@H](c2ccc3c(c2)OCO3)[C@@H](C(=O)O)[C@@H]1c1ccc(OC)c(F)c1` (stereo in doubt; 13e): the IC50 in data set [1] worked out at 0.85 nM.

Turning to `CCCN(CCN1C[C@H](c2ccc3c(c2)OCO3)[C@@H](C(=O)O)[C@@H]1c1ccc(OC)cc1)S(=O)(=O)CC(C)C`, the concentration for half-maximal inhibition (IC50) was 5.2 nM in data set [1] and 0.78 nM at Endothelin-1 receptor. Besides, in data set [2], the Ratio stood at 6.6.

In the case of `CCCCS(=O)(=O)N(CCC)CCN1C[C@H](c2ccc3c(c2)OCO3)[C@@H](C(=O)O)[C@@H]1c1ccc(OC)c(F)c1` (stereo in doubt; 14a), in data set [1], the IC50 turned out to be 1 nM.

On to `CCCN(CCN1C[C@H](c2ccc3c(c2)OCO3)[C@@H](C(=O)O)[C@@H]1c1ccc(OC)cc1)S(=O)(=O)c1ccc(OC)cc1`, for which the results for the concentration for half-maximal inhibition (IC50) (in data set [1]; on Endothelin-1 receptor) were 66 nM and 0.53 nM, respectively. Also, the Ratio in data set [2] came out at 120.

Regarding `CCCCN(CCN1C[C@H](c2ccc3c(c2)OCO3)[C@@H](C(=O)O)[C@@H]1c1ccc(OC)cc1)S(=O)(=O)CCC`, the values for the IC50 (in data set [1]; on Endothelin-1 receptor) were 60 nM and 2 nM, respectively. Further, the Ratio in data set [2] was 30.

In the case of `CCCS(=O)(=O)N(C)CCN1C[C@H](c2ccc3c(c2)OCO3)[C@@H](C(=O)O)[C@@H]1c1ccc(OC)cc1`, the values for the IC50 (in data set [1]; at Endothelin-1 receptor) were 260 nM and 10 nM, respectively. The Ratio in data set [2] was 26.

In turn, `CCCCN(CCCC)C(=O)CN1C[C@H](c2ccc3c(c2)OCO3)[C@@H](C(=O)O)[C@@H]1c1ccc(OC)cc1` returned a bioavailability in data set [3] of 70%.

Take `CCCN(CCN1C[C@H](c2ccc3c(c2)OCO3)[C@@H](C(=O)O)[C@@H]1c1ccc(OC)cc1)S(=O)(=O)c1ccccc1`: the IC50 in data set [1] came out at 210 nM; at Endothelin-1 receptor it was 1.4 nM. Further, in data set [2], the Ratio turned out to be 150.

In the case of `CCCS(=O)(=O)N(CCN1C[C@H](c2ccc3c(c2)OCO3)[C@@H](C(=O)O)[C@@H]1c1ccc(OC)cc1)CC(C)C`, the IC50 came to 62 nM in data set [1] and 8.1 nM at Endothelin-1 receptor. In data set [2], the Ratio was 7.7.

Regarding `CCCN(CCN1C[C@H](c2ccc3c(c2)OCO3)[C@@H](C(=O)O)[C@@H]1c1ccc(OC)c(F)c1)S(=O)(=O)CCCCl` (stereo in doubt; 14e) [listing 1 of 2 here], the Ratio in data set [2] is 2.5.

Consider `CCCN(CCN1C[C@H](c2ccc3c(c2)OCO3)[C@@H](C(=O)O)[C@@H]1c1ccc(OC)c(F)c1)S(=O)(=O)CCC(C)C`, for which the IC50 in data set [1] is 1.2 nM; at Endothelin-1 receptor, 0.46 nM. Also, in data set [2], the Ratio worked out at 2.6.

In the case of `CCCN(CCN1C[C@H](c2ccc3c(c2)OCO3)[C@@H](C(=O)O)[C@@H]1c1ccc(OC)cc1)S(=O)(=O)CCCCl`, the IC50 in data set [1] is 6.3 nM; on Endothelin-1 receptor it was 2 nM. Moreover, the Ratio in data set [2] worked out at 3.1.

As for `CCCCS(=O)(=O)N(CCC)CCN1C[C@H](c2ccc3c(c2)OCO3)[C@@H](C(=O)O)[C@@H]1c1ccc(OC)cc1`, the IC50 in data set [1] was 9.4 nM; at Endothelin-1 receptor it was 2 nM. In addition, the Ratio in data set [2] amounted to 4.7.

On to `CCCCN(CCN1C[C@H](c2ccc3c(c2)OCO3)[C@@H](C(=O)O)[C@@H]1c1ccc(OC)cc1)C(=O)CCC`, for which the IC50 was 850 nM in data set [1] and 20 nM at Endothelin-1 receptor. Besides, in data set [2], the Ratio is 43.

With `CCCN(CCN1C[C@H](c2ccc3c(c2)OCO3)[C@@H](C(=O)O)[C@@H]1c1ccc(OC)c(F)c1)S(=O)(=O)CCCCl` (stereo in doubt; 14e) [listing 2 of 2 here], the IC50 in data set [1] was found to be 1 nM; on Endothelin-1 receptor it was 0.4 nM.

In the case of `CCCN(CCN1C[C@H](c2ccc3c(c2)OCO3)[C@@H](C(=O)O)[C@@H]1c1ccc(OC)cc1)S(=O)(=O)CCC`, the values for the IC50 (in data set [1]; on Endothelin-1 receptor) were 36 nM and 1.6 nM, respectively. Also, in data set [2], the Ratio worked out at 22.

Turning to `CCCCCS(=O)(=O)N(CCC)CCN1C[C@H](c2ccc3c(c2)OCO3)[C@@H](C(=O)O)[C@@H]1c1ccc(OCC)c(F)c1`, the IC50 in data set [1] was determined as 2.6 nM; at Endothelin-1 receptor, 1.3 nM. Moreover, the Ratio in data set [2] worked out at 2.

With `CCCCCS(=O)(=O)N(CCC)CCN1C[C@H](c2ccc3c(c2)OCO3)[C@@H](C(=O)O)[C@@H]1c1ccc(F)c(F)c1`, the IC50 in data set [1] stood at 68 nM; at Endothelin-1 receptor, 18 nM. Besides, the Ratio in data set [2] worked out at 3.8.

As to `CCCCCCS(=O)(=O)N(CCC)CCN1C[C@H](c2ccc3c(c2)OCO3)[C@@H](C(=O)O)[C@@H]1c1ccc(OC)c(F)c1` (stereo in doubt; 14b), in data set [1], the IC50 was determined as 1.5 nM.

As to `CCCN(CCN1C[C@H](c2ccc3c(c2)OCO3)[C@@H](C(=O)O)[C@@H]1c1ccc(OC)cc1)S(=O)(=O)CC`, the IC50 in data set [1] was 95 nM; at Endothelin-1 receptor, 1.2 nM. Moreover, the Ratio in data set [2] is 79.

With `CCCCCS(=O)(=O)N(CCC)CCN1C[C@H](c2ccc3c(c2)OCO3)[C@@H](C(=O)O)[C@@H]1c1ccc(OC)cc1`, the IC50 in data set [1] was 4.1 nM; on Endothelin-1 receptor, 0.57 nM. In addition, the Ratio in data set [2] amounted to 7.2.

On to `CCCN(CCN1C[C@H](c2ccc3c(c2)OCO3)[C@@H](C(=O)O)[C@@H]1c1ccc(OC)cc1)S(=O)(=O)c1ccc(C)cc1`, for which the figures for the IC50 (in data set [1]; on Endothelin-1 receptor) were 85 nM and 8.3 nM, respectively. Also, the Ratio in data set [2] was found to be 10.

On to `COc1ccccc1Oc1c(NS(=O)(=O)c2ccc(C(C)(C)C)cc2)nc(-c2ncccn2)nc1OCCO` [BOSENTAN], for which the bioavailability in data set [3] was 30%. The half-life in data set [4] is 4 h.

For the molecule `CCCCCS(=O)(=O)N(CCC)CCN1C[C@H](c2ccc3c(c2)OCO3)[C@@H](C(=O)O)[C@@H]1c1ccc(OC)c(OC)c1`, the IC50 in data set [1] was 73 nM; on Endothelin-1 receptor it was 2.3 nM. The Ratio in data set [2] came to 32.

Consider `CCCCCCCS(=O)(=O)N(CCC)CCN1C[C@H](c2ccc3c(c2)OCO3)[C@@H](C(=O)O)[C@@H]1c1ccc(OC)cc1`, for which the IC50 was determined as 57 nM in data set [1] and 5.1 nM at Endothelin-1 receptor. For the same molecule, the Ratio in data set [2] came out at 11.

Regarding `CCCN(CCN1C[C@H](c2ccc3c(c2)OCO3)[C@@H](C(=O)O)[C@@H]1c1ccc(OC)cc1)S(=O)(=O)Cc1ccccc1`, in data set [1], the IC50 amounted to 34 nM. That is a double-digit nanomolar value.

`CCCN(CCN1C[C@H](c2ccc3c(c2)OCO3)[C@@H](C(=O)O)[C@@H]1c1ccc(OC)c(F)c1)S(=O)(=O)CCCC(F)(F)F` (stereo in doubt; 14f) yielded an IC50 in data set [1] of 0.98 nM.

For `CCCN(CCN1C[C@H](c2ccc3c(c2)OCO3)[C@@H](C(=O)O)[C@@H]1c1ccc(OC)c(F)c1)S(=O)(=O)Cc1ccccc1`, the half-maximal inhibitory concentration (IC50) in data set [1] amounted to 2.9 nM; on Endothelin-1 receptor, 2.7 nM. For the same molecule, the Ratio in data set [2] is 1.1.

In the case of `CCCN(CCN1C[C@H](c2ccc3c(c2)OCO3)[C@@H](C(=O)O)[C@@H]1c1ccc(OC)c(F)c1)S(=O)(=O)CC(C)C`, the figures for the IC50 (in data set [1]; at Endothelin-1 receptor) were 1.6 nM and 0.21 nM, respectively. In data set [2], the Ratio was determined as 7.6.

For the molecule `CCCCCCS(=O)(=O)N(CCC)CCN1C[C@H](c2ccc3c(c2)OCO3)[C@@H](C(=O)O)[C@@H]1c1ccc(OC)cc1`, the IC50 in data set [1] stood at 4.5 nM; at Endothelin-1 receptor, 0.43 nM. In addition, in data set [2], the Ratio worked out at 10.

`CCCN(CCN1C[C@H](c2ccc3c(c2)OCO3)[C@@H](C(=O)O)[C@@H]1c1ccc(OC)cc1)S(=O)(=O)CCOC`: the 50% inhibitory concentration (IC50) came out at 77 nM in data set [1] and 5.2 nM on Endothelin-1 receptor. Besides, in data set [2], the Ratio was 15.

`CCCN(CCN1C[C@H](c2ccc3c(c2)OCO3)[C@@H](C(=O)O)[C@@H]1c1ccc(OC)cc1)S(=O)(=O)c1ccc(Cl)cc1`: the IC50 was 41 nM in data set [1] and 6.3 nM at Endothelin-1 receptor. In addition, the Ratio in data set [2] is 6.5.

For `CCCCCS(=O)(=O)N(CCC)CCN1C[C@H](c2ccc3c(c2)OCO3)[C@@H](C(=O)O)[C@@H]1c1ccc(OCCC)cc1`, the IC50 amounted to 610 nM in data set [1] and 48 nM on Endothelin-1 receptor. In data set [2], the Ratio amounted to 13.
